The values below come from PMC12667295, “A surrogate barrier model for high-throughput blood-brain barrier permeability prediction: integrating LLC-PK1-MOCK/MDR1 Cells and lysosomal trapping correction” (Drug Delivery, 2025).

Data set [1] in a line: Bidirectional transport across LLC-PK1 MOCK monolayer (Transwell).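 For all read-outs here: compound quantified by LC-MS/MS in donor and receiver wells, efflux ratio as B-A over A-B Papp, recovery relative to initial donor amount.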 As to conditions: pig; for Papp A→B at 2 h, 2 µM: LLC-PK1, pH 7.4, Papp A-B, LLC-PK1 MOCK, mean ± s, n = 3, BLQ = below 2 nM.
Method: (§1) Cells were passaged at 80−90% confluence (every 2−3 days) using trypsin-EDTA solution. […] The culture medium was replaced every other day, including 200 µL culture medium in the apical and 850 µL cell culture medium in the basolateral side. LLC-PK1 MOCK cells were used at passages of 3−30. LLC-PK1-MDR1 cells were cultured and passaged in the same manner as LLC-PK1 cells except at the density of 1 × 10^4 cells per well. LLC-PK1-MDR1 cells were used at passages of 3−25. For LLC-PK1 MOCK cells and LLC-PK1-MDR1 cells, the experiments were performed on the 4th and 7th day after seeding.
(§2) Samples were collected from the donor well at the start of the incubation (50 µL) as C0, and from the donor and receiver wells at the end of the incubation (50 µL). All samples were stored at - 40 °C for LC-MS/MS analysis.
(§3) Bidirectional transport experiments. […] The transwell experiments were conducted following above-mentioned procedure. […] When the recovery rate of the tested drug is below 80%, the possibility of intracellular accumulation should be considered. The polycarbonate (PC) membrane where cells are grown should be carefully peeled off from the cell culture medium and placed in 100 µL of HBSS buffer solution. […] The process was carried out on ice to prevent heat-induced degradation, applying a power in the range of 300 W for a total duration of 20 minutes. Thereafter, a quantitative analysis of the intracellular drug was conducted, and the drug recovery rate was recalculated based on this analysis.
(§4) The apparent permeability coefficient (Papp, cm/s) was calculated for each transport direction, A-B and B-A, using the following equation: Papp=dQ/dt×1/A×C0 where dQ/dt is the permeation rate (µmol/s), A is the surface area of the insert (0.33 cm^2, Corning), and C0 is the initial donor concentration (µM).
(§5) The efflux ratio (ER) is calculated as the ratio of Papp (B-A)/Papp (A-B). Recovery=TRcumrf+Cdf×VD/Cdi×VD×100% Where TRcumrf is the cumulative transported mass in the receiver chamber at the end of the incubation (nmol), Cdf is the concentration of the drug in the donor chamber at the end of the incubation (μM), VD is the volume of the donor chamber (mL), and Cdi is the initial concentration of the drug in the donor chamber (μM).
(§6) The method of the bidirectional transport experiment was the same as before.
For data set [2], the system named is P-gp (human MDR1). The data set is described as follows: in vitro. As to conditions: pig, LLC-PK1, pH 7.4.
Method: (§7) The overexpression and functional activity of P-glycoprotein (P-gp) in the LLC-PK1-MDR1 cells were rigorously validated through multiple methods.
as §1
(§8) Monitoring permeability of positive control drugs. […] Samples were collected from the donor well at the start of the incubation (50 µL) as C0, and from the donor and receiver wells at the end of the incubation (50 µL). All samples were stored at - 40 °C for LC-MS/MS analysis.
as §3, §4, §5, §6
Details of data set [3]: method as in Internal data. As to conditions: footnote a; ref Internal data; cited from earlier work.
The test system of data set [4] is P-gp (human MDR1). Kind of data set: Bidirectional transport across LLC-PK1-MDR1 monolayer stably expressing human MDR1 (P-gp) (Transwell).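 Note: 2 h incubation at 37 °C, receiver HBSS with 10 mM Hepes plus 1% BSA, LC-MS/MS of donor and receiver, recovery as receiver plus donor amount over initial donor amount.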 As to conditions: pig.
Method: as §7, §1, §8, §3, §4, §5, §6
The nature of data set [5]: in vitro. As to conditions: pig, LLC-PK1 MOCK cell monolayer (Transwell), pH 7.4.
Method: as §1, §2, §3, §4, §5, §6
Data set [6] can be described thus: in vivo. As to conditions: rat. The source says: In vivo unbound brain distribution data (Kp,uu,Brain) for 16 drugs and total brain distribution data (Kp,Brain) for 16 drugs was acquired from literature. […] For each tested compound, fifteen rats were randomly divided into five groups of three rats each. […] The time of execution of the rats by CO2 inhalation after administration was optimized according to the in vivo elimination rate to achieve five concentrations of different time points. After the rats were euthanized, cardiac puncture was performed immediately to remove as much whole blood as possible (~7 ml) from the systemic circulation (Quantitatively aliquot 0.2 ml of whole blood for the determination of drug concentration in plasma). Afterwards, the brain tissue was collected immediately and rinsed repeatedly with ice-cold saline 3 times. Then, the surface saline was blotted dry with clean filter paper to remove as much residual drug in the blood vessels as possible. Plasma samples were prepared by centrifugation of the blood samples at 2,500 g for 10 minutes at 4 °C. All brain samples were homogenized by adding 4-fold volume water. All samples were stored at -40 °C before LC-MS/MS analysis. […] The brain tissue partition coefficient (Kp, brain) and brain-to-plasma unbound drug partition ratio (Kp,uu, brain) are calculated according to the following formulas, respectively: Kp,brain=AUC(0−∞,brain)/AUC(0−∞,plasma)Kp,uu,brain=Kp,brain×(fu,tissue/fu,plasma)
Free brain-to-plasma distribution coefficients (Kp,uu,brain) of 41 drugs. Brain distribution coefficients (Kp,uu,brain) were calculated for 41 drugs. […] Plasma and brain concentration-time profiles were generated, and AUC(0-t) values for both matrices were calculated using WinNolin 8.1. Kp,brain was derived as the ratio of brain-to-plasma AUC(0-t).
Kp,uu,brain values were computed by normalizing Kp,brain to unbound fractions (fu,plasma and fu,brain).

For data set [7] the following is noted: cited from earlier work.
The conditions of data set [8]: footnote a; ref Internal data; cited from earlier work.
Data set [9] relates to LLC-PK1-MDR1 cells.
Method: as §7, §1, §8, §3, §4, §5, §6
In data set [10] the test system is LLC-PK1-MDR1 cells. Kind of data set: Bidirectional transport across LLC-PK1-MDR1 monolayer stably expressing human MDR1 (P-gp) (Transwell).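 Note: 2 h incubation at 37 °C, receiver HBSS with 10 mM Hepes plus 1% BSA, LC-MS/MS of donor and receiver, recovery as receiver plus donor amount over initial donor amount.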 As to conditions: LLC-PK1-MDR1, with 5 μM tariquidar vs without.
Method: as §7, §1, §8, §3, §4, §5, §6

Like-named read-outs stand apart in the source and are kept apart here.

A word on the Papp B→A: it is the apparent permeability from the basolateral to the apical side of a cell layer. Usually efflux ratio stands for a quotient of directional permeabilities that is used to spot active efflux. As a reminder, the Papp A→B is the apparent permeability from the apical to the basolateral side of a cell layer. Take `COc1ccc2[nH]cc(CCNC(C)=O)c2c1` [Melatonin]: the apparent permeability from basolateral to apical (Papp B→A) at 2 h, 2 µM in [1] (LLC-PK1, pH 7.4) is 20.6 ± 0.92 ×10⁻⁶ cm/s; in data set [4] (LLC-PK1, pH 7.4) it was 21.7 ± 1.08 ×10⁻⁶ cm/s. The efflux ratio at 2 h, 2 µM was 0.92 in [1] (LLC-PK1, pH 7.4) and 1.02 in [4] (LLC-PK1, pH 7.4). For the same compound, the Papp A→B at 2 h, 2 µM in [1] is 22.4 ± 0.51 ×10⁻⁶ cm/s; in data set [4] (LLC-PK1, pH 7.4), 20.8 ± 1.43 ×10⁻⁶ cm/s. Further, the recovery at 2 h, 2 µM in data set [2] was determined as 93.1 ± 1.67%; in data set [5], 105 ± 2.95%. In data set [3], the “Protein binding in brain tissue” value is given as 30.0^a %. The Kp uu in data set [6] amounted to 0.575. The “Protein binding in plasma” value in data set [7] (ref Le Quellec et al. [1994]) was 33.0%. Also, the “Kp, Brain” value in [8] is listed as 0.5^a.
Consider `Cc1cccc([C@H](C)c2cnc[nH]2)c1C` [Dexmedetomidine], for which the apparent permeability from basolateral to apical (Papp B→A) at 2 h, 2 µM in data set [1] (LLC-PK1, pH 7.4) came to 35.2 ± 2.56 ×10⁻⁶ cm/s; in data set [4] (LLC-PK1, pH 7.4), 29.1 ± 3.62 ×10⁻⁶ cm/s. Moreover, the Papp A→B at 2 h, 2 µM amounted to 30.8 ± 0.61 ×10⁻⁶ cm/s in data set [1] and 30.2 ± 3.4 ×10⁻⁶ cm/s in data set [4] (LLC-PK1, pH 7.4, Papp A-B, LLC-PK1-MDR1, 2 µM, 2 h, mean ± s, n = 3). Moreover, the “Protein binding in brain tissue” value in data set [3] is recorded as 86.7^a %. In data set [6], this compound showed a Kp uu of 2.21. Also, the “Protein binding in plasma” value in [7] (footnote a, ref Internal data) is given as 95.2^a %. For the same compound, the “Kp, Brain” value in data set [8] is 0.80^a.
By Papp is commonly meant the rate of passage across a membrane or cell layer, normalised by area and donor concentration. High values mean ready permeation, low ones poor permeation. Turning to `C[C@H]1O[C@@H](O[C@H]2[C@@H](O)C[C@H](O[C@H]3[C@@H](O)C[C@H](O[C@H]4CC[C@@]5(C)[C@H](CC[C@@H]6[C@@H]5C[C@@H](O)[C@]5(C)[C@@H](C7=CC(=O)OC7)CC[C@]65O)C4)O[C@@H]3C)O[C@@H]2C)C[C@H](O)[C@@H]1O` [Digoxin], the Papp B→A at 2 h, 2 µM in data set [1] (LLC-PK1, pH 7.4) came to 1.75 ± 0.07 ×10⁻⁶ cm/s; in data set [4] (LLC-PK1, pH 7.4) it was 7.79 ± 0.91 ×10⁻⁶ cm/s. Besides, the apparent permeability coefficient (Papp) at 2 h, 2 µM was determined as 2.17 ×10⁻⁶ cm/s in data set [1] (LLC-PK1, pH 7.4) and 2.1 ×10⁻⁶ cm/s in [1] (LLC-PK1, pH 7.4, with tariquidar 5 µM (P-gp inhibitor)). In addition, the Papp A→B at 2 h, 2 µM was 1.91 ± 0.13 ×10⁻⁶ cm/s in data set [1] and 1.15 ± 0.28 ×10⁻⁶ cm/s in [4] (LLC-PK1, pH 7.4). The recovery in data set [9] was 109 ± 16%. For the same compound, the “increase in apical-to-basolateral (A→B) permeability” value in data set [10] was 3.97 fold. Also, the recovery at 2 h, 2 µM in data set [5] was 95 ± 5.24%.
